From US20190284258A1, “HAEMADIPSA SYLVESTRIS ANTITHROMBOTIC PEPTIDE SYLVESTIN AND USE THEREOF” (priority 2016, published 2019) come the findings set out here.

Data set [1] relates to cerebral ischemia and reperfusion injury. The experiment in a line: Acute cerebral ischemic intraluminal thread model. It is filed as in vivo, Kunming mice. The settings on record: 1, 3, 5 mg/kg i.v. tail vein; 1 h ischemia, assessed at 24 h.
Experimental: Kunming mice (30 to 35 g) were anesthetized with 2% sodium pentobarbital (80 mg/kg). After medium-deep anesthesia, a midline neck incision was made, the skin and subcutaneous tissue of the mice were incised layer by layer, the sternocleidomastoid muscle was separated, the anterior belly of the digastric muscle was incised off, the right common carotid artery (CCA), internal carotid artery (ICA) and external carotid artery (ECA) were exposed, an electric coagulator was used to coagulate thyroid artery and pharyngeal artery over the ECA and they were cut off. Ligation of the distal end of the ECA was performed, seton was placed at the proximal end, CCA and ICA were temporarily closed using a clip, the ECA was cut off, an intraluminal thread was inserted into the ICA from the ECA stump, ligation of the ECA stump was performed, the artery clip of the ICA was removed, pushed inward and upward from the ICA. […] Cerebral ischemia for 24 h, and the neurological deficit score was assessed and recorded according to the Bederson Scale assessment: 0 is no dysfunction; 1 is being unable to extend the right forelimb; 2 is rotating to right; 3 is dumping to right; 4 is no autonomous activity with disturbance of consciousness; 5 is death. […]
In data set [2] the test system is endogenous coagulation pathway (normal plasma). Nature of the data set: APTT experiment. The conditions noted are these: OD 650 nm. On the procedure: (§1) The APTT reagent was equilibrated to room temperature and the APTT reagent was mixed by gentle inversion; 50 μL of the reagent, 50 μL of normal plasma and 5 μL of the sample were mixed and incubated in a 37° C. water bath for 3 min; 50 μL of pre-warmed CaCl2 solution was added, mixed immediately; the OD 650 nm was detected with a microplate reader. PT experiment: prothrombin reagent was pre-warmed at 37° C. for 15 min; 50 μL of normal plasma and 5 μL of the sample were incubated in a 37° C. water bath for 3 min; 100 μL of pre-warmed prothrombin reagent was added, mixed immediately; OD 650 nm was detected with a microplate reader.

The test system of data set [3] is plasminogen. The experiment in a line: Enzyme kinetics, plasminogen. The format is biochemical. The conditions noted are these: sample 10 μM.
The target in data set [4] is FXa (Homo sapiens, UniProt P00742). The experiment in a line: Enzyme kinetics, FXa. The settings on record: sample 10 μM. It is filed as biochemical.
FXa, sequence (P00742 235-488 limits assumed): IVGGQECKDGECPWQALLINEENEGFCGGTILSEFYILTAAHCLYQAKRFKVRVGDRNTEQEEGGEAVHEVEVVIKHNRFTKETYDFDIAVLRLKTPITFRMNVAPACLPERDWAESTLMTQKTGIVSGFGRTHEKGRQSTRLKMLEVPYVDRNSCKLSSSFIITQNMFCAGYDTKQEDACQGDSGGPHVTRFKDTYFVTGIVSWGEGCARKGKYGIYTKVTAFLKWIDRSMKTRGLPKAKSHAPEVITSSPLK
FXa, sequence (P00742 41-179 partner limits assumed): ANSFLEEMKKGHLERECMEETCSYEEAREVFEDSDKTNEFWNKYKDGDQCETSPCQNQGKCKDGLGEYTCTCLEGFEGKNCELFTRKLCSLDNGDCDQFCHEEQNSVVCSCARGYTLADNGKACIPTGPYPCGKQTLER
Data set [5] deals with kallikrein. Nature of the data set: Enzyme kinetics, kallikrein. It is filed as biochemical. As for the experimental part:
[Worded in the source for another target; this target is reported under the same test.] (§2) In a 96-well plate, 10 μL of the sample and 10 μL of FXIIa with a final concentration of 0.2 μM were mixed in 40 μL of buffer (100 mM NaCl, 50 mM Tris-HCl (pH 8.0), 5 mM CaCl2), allowed to stand at room temperature for 5 min. A mixture of 30 μL of buffer and 10 μL of chromogenic substrate with a final concentration of 0.04 mM was added to each well, the final volume was 100 μL. The kinetics of the coagulation reaction was measured using an Epoch (BioTek) microplate reader and GEN CHS 1.09 software, OD 405 nm, 20 min, with 47 s intervals. The concentration of the sample was 10 μM.

Data set [6] deals with normal plasma. Nature of the data set: PT experiment. The settings on record: OD 650 nm. On the procedure: as §1
Data set [7] addresses T1, FXIIa (Homo sapiens, UniProt P00748).
T1 sequence (P00748 373-615 limits assumed): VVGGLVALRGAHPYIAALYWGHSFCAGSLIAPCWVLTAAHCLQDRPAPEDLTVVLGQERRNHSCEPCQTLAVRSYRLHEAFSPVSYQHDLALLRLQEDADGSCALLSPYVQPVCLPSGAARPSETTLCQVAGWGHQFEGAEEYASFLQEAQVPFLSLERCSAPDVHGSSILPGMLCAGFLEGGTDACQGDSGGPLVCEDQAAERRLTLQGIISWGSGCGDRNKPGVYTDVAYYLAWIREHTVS
Nature of the data set: Enzyme kinetics, chromogenic substrate, FXIIa. The format is biochemical. The settings on record: sample 10 μM. As for the experimental part:
as §2

For data set [8], the target named is thrombin (Homo sapiens, UniProt P00734). Nature of the data set: Enzyme kinetics, thrombin. The settings on record: sample 10 μM. It is filed as biochemical.
Data set [9] in a line: Isoelectric focusing electrophoresis. It is filed as physicochemical. As for the experimental part:
3.3 The purity of the purified Haemadipsa sylvestris antithrombotic peptide was determined by HPLC, the molecular weight was determined by fast atom bombardment mass spectrometry, the isoelectric point was determined by isoelectric focusing electrophoresis, and the amino acid sequence was determined by automatic amino acid sequencer.

Data set [10] relates to tail thrombosis. Nature of the data set: Carrageenan-induced rat tail thrombosis model. The format is in vivo, Kunming mice. The settings on record: for effect on tail thrombosis (average length of thrombus) compared with control group: each time point 12, 24, 36, 48 h, Sylvestin 2 and 4 mg/kg, heparin sodium 500 U/mouse, t-test p<0.05. As for the experimental part: [Worded in the source for another organism; this organism is reported under the same test.] Kunming mice were used as experimental animals, body weight 25 to 30 g (provided by the Experimental Animal Center of Kunming Medical College). After one week of housing, they were randomly divided into groups (n=6), half male and half female. One group was a physiological saline control group, the sample groups were Sylvestin synthesized in Example 2 at a dose of 2 mg/kg and 4 mg/kg, respective, and the positive control was given heparin sodium (Beijing Dingguo Changsheng Biotechnology Co., Ltd.), 500 U/mouse. 30 minutes after tail vein administration, carrageenan (carrageenan, type I, Sigma, dissolved in physiological saline to a concentration of 1%) was injected from the abdomen of the mice at a dose of 60 mg/kg, since the thrombosis rate was >90% in a low temperature environment, the housing temperature was set at 17.5° C. After 12, 24, 36, and 48 h, the average length of thrombus was determined according to the color change of the tail skin. Referring to FIG. 1, the average length of thrombus in each group increased with time. […] Data processing was Graphpad Prime 5, data mean±SD, t-test (*p<0.05).

Positions of bridges follow the written chain, without caps; N, C: chain ends. No end group written: not given here.

As to “TSEPVCACPKMLFWVCGKDGETYTHPCIAKCHNVEVEHDGKCK (disulfide 6-31, 8-27, 16-42) [Sylvestin]”, in [1], the “injury caused by cerebral ischemia and reperfusion (Bederson score, ischemic volume)” value is recorded as “effectively alleviate the injury”. Besides, the “effect in APTT experiment” value in data set [2] was “concentration-dependent effect”. The “inhibitory effect on plasminogen” value in [3] was “no inhibitory effect”. For the same substance, the “inhibitory effect on FXa” value in [4] is on record as “no inhibitory effect”. For the same substance, the Ki in data set [5] (read-out: inhibition constant on kallikrein) amounted to 0.0178 µM. Besides, the “inhibitory effect on kallikrein” value in data set [5] (sample 10 μM) is listed as “can inhibit”. For the same substance, the “effect in PT experiment” value in data set [6] is on record as “no effect”. Besides, the “inhibitory effect on FXIIa” value in [7] is recorded as “can inhibit”. In addition, the “inhibitory effect on thrombin” value in [8] was “no inhibitory effect”. In [9], this substance had an isoelectric point of 6.28. Moreover, the “inhibition rate against thrombus versus dose” value in [10] (2 mg/kg and 4 mg/kg) is on record as “increased as concentration increased”. For the same substance, in data set [10] (12 to 48 h), the “inhibition rate against thrombosis over time” value was “decreased over time”. Also, the “change of length of thrombus from 12 h to 24 h” value in [10] was “increased slightly”. In [10] (48 h, tail vein), the “inhibitory effect on thrombosis compared with control group after 48 h” value is given as “significant inhibitory effect”. In data set [10] (tail vein), the “effect on tail thrombosis (average length of thrombus) compared with control group” value is given as “statistically significant”.

As for heparin sodium [reference compound], in data set [10], the “change of length of thrombus from 12 h to 24 h” value is listed as “doubled”. Besides, the “effect on tail thrombosis (average length of thrombus) compared with control group” value in data set [10] (tail vein) was “statistically significant”.
